Legend:
rhACE2 = molecular target: T1, rhACE2 (Homo sapiens, UniProt Q9BYF1); assay: SPR assay with rhACE2; type: binding; conditions: rhACE2 on chip, 5% DMSO–1.05× PBS
T1 construct: purchased Proteintech
Method: To screen the potential targets of the MDAs in hypertension, a CVDPlatform (www.cbligand.org/CVD) was used as previously reported ([Zhang et al., 2016a]). The results of database screening were verified by virtual docking with Discovery Studio 3.5 (BIOVIA, San Diego, CA, United States) and then validated in the SPR assay. In the SPR assay, a solution of protein standards was prepared, and the concentration of recombinant human ACE (rhACE) protein and rhACE2 (Proteintech, Rosemont, IL, United States) solution was set to 500 μg ml^−1. […] Finally, the level of binding between the proteins and each molecule was determined based on the K d value.

HUVECs = assay: CCK-8 cell viability (drug cytotoxicity) in HUVECs; type: cell-based, human; conditions: dose lower than 100 μM, 48 h
Excerpt: Human umbilical vein endothelial cells (HUVECs) were isolated from umbilical cords as previously described ([Jaffe et al., 1973]). They were purchased from ATCC (cat# CRL-1444, Manassas, VA, United States) and cultured in endothelial cell medium (ECM, ScienCell, Carlsbad, CA, United States) supplemented with 5% FBS, 1% endothelial cell growth supplement, and 1% antibiotics (Sigma, St. Louis, MO, United States). Cells harvested between the third and tenth passages were used in the experiments. Cells were cultured until they were ∼80% confluent. After pre-starving in a quiescing ECM supplemented with 1% FBS and 1% antibiotics for 24 h, the cells were treated using different concentrations of BAC (Control, DMSO, 25, 50, and 100 μM, dissolved in 0.1% DMSO–DMEM) with or without MG132, an inhibitor of proteasome, at 20 nM or 40 nM for 24 h. Then, cell samples were collected for Western blot analysis or immunofluorescence staining.
The potential of cells to maintain or recover viability after treatment with each agent was determined. Cell viability can be distinguished from the all-or-nothing states of life and death using a quantifiable index between 0 and 1 (or 0 and 100%). Cell viability was measured by a Cell Counting Kit-8 (CCK-8) Assay Kit (EnoGene, Nanjing, China). […] After 1 h of incubation, the absorbance was measured at 450 nm using a microplate reader (Thermo Fisher Scientific). […]

p-Akt = p-Akt in aorta of SHRs (Western blot); type: in vivo, rat; conditions: vessel of SHRs, oral 14 days
Excerpt: (§1) All three MDAs (BAC, BMC, and BHC) were purchased from Nature-Standard Co., Ltd. (Shanghai, China) and their purities were all over 98%. The anti-hypertensive effects of MDAs were studied in both acute and chronic experiments. The 16-week-old SHRs were used in animal experiments, and each group had six rats. In the acute experiment, drug administration was via i.v. injection. For i.v. injection, the animals were randomly assigned into four groups: vehicle (0.1% DMSO–0.9% salt solution, n = 6), low-dose group (0.6 mg kg^−1 body weight, n = 6), medium-dose group (2 mg kg^−1 body weight, n = 6), and high-dose group (6 mg kg^−1 body weight, n = 6). The drug was administered using a venous catheter. In chronic experiments, the animals were randomly assigned into five groups: vehicle (5% Tween 80–0.9% salt solution, n = 6), captopril group (5 mg kg^−1 body weight, n = 6), low-dose group (3 mg kg^−1 body weight, n = 6), medium-dose group (10 mg kg^−1 body weight, n = 6), and high-dose group (30 mg kg^−1 body weight, n = 6). Oral administration with drug or 5% Tween 80–0.9% salt solution was carried out once a day, and continued for 14 days. […] Blood pressure was recorded in real time.
(§2) The cell samples and tissue sample were collected and placed in ice rapidly. […] Protein concentration in cell lysates was measured using a Bio-Rad DC Protein Assay Kit […]. […]

IL-6 = assay: serum IL-6 by ELISA in SHRs; type: in vivo, rat; conditions: oral 14 days
Excerpt: All three MDAs (BAC, BMC, and BHC) were purchased from Nature-Standard Co., Ltd. (Shanghai, China) and their purities were all over 98%. The anti-hypertensive effects of MDAs were studied in both acute and chronic experiments. The 16-week-old SHRs were used in animal experiments, and each group had six rats. In the acute experiment, drug administration was via i.v. injection. For i.v. injection, the animals were randomly assigned into four groups: vehicle (0.1% DMSO–0.9% salt solution, n = 6), low-dose group (0.6 mg kg^−1 body weight, n = 6), medium-dose group (2 mg kg^−1 body weight, n = 6), and high-dose group (6 mg kg^−1 body weight, n = 6). The drug was administered using a venous catheter. […] Blood pressure was recorded in real time.
Blood samples were collected from the left femoral artery of rats at the end point, followed by centrifugation at 1,000 × g for 15 min at 4°C. […] The concentrations of circulating ACE, ACE2, Ang I, Ang II, Ang (1–7), TNF-α, and IL-6 in serum were measured using the ELISA kits [ACE, cat#xy-R2401c, X-Y Biotechnology, Shanghai, China; ACE2, cat#xy-ACE2-Ra, X-Y Biotechnology; Ang I, cat#xy-E12541, X-Y Biotechnology; Ang II, cat#xy-R1430c, X-Y Biotechnology; Ang (1–7), cat#xy-Ang1-7-Ra, X-Y Biotechnology; TNF-α, cat#GM1149, Servicebio, Shanghai, China; IL-6, cat#GM1154, Servicebio] according to the manufacturer’s instructions. […]

p-IKB-α = assay: phosphorylation of IKB-α in aorta of SHRs (Western blot); type: in vivo, rat; conditions: oral 14 days
Excerpt: as §1, §2

T1 sequence (Q9BYF1 18-805): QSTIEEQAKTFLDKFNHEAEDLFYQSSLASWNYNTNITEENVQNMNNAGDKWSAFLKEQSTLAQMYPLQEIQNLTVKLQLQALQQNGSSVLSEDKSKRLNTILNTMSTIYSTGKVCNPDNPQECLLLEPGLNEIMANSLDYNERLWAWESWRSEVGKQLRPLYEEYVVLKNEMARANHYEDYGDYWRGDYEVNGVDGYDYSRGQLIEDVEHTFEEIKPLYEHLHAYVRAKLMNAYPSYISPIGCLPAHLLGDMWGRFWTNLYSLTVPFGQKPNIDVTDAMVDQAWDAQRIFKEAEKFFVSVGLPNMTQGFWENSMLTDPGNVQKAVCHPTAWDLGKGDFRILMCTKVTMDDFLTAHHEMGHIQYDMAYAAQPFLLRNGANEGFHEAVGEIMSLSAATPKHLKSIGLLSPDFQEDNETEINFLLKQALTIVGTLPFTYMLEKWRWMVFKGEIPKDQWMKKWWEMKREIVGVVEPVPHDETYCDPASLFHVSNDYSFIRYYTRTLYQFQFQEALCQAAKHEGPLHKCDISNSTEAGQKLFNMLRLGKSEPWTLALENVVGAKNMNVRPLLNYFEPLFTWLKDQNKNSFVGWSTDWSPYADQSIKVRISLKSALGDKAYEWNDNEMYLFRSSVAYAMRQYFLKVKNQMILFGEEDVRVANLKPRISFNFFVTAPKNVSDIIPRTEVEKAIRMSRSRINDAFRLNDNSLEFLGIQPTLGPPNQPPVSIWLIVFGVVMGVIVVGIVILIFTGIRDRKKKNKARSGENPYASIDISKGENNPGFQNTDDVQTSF

For `CCN1CC2(COC)C(O)CC(OC)C34C5CC6(O)C(OC)C(O)C(O)(C5C6OC(=O)c5ccccc5)C(C(OC)C23)C14` (centres unmarked) [BAC, Benzoylaconitine], the Kd (rhACE2) was 3.12 µM, the “cell viability (toxicity on HUVECs)” value (HUVECs) was “no significant effect” and the p-Akt (p-Akt) was “activated”. For the same compound, the “level of IL-6 in serum” value (IL-6) was “reduced” and the “phosphorylation of IKB-α” value (p-IKB-α) was “downregulated”.

Reference: PMC8963105, “A Novel Modulator of the Renin–Angiotensin System, Benzoylaconitine, Attenuates Hypertension by Targeting ACE/ACE2 in Enhancing Vasodilation and Alleviating Vascular Inflammation” (Frontiers in Pharmacology, 2022)
